This note sets out measurements from US20250114374A1, “BCL-2 INHIBITORS” (Newave Pharmaceutical Inc., priority 2021, published 2025).

Where two headings read alike, the source gives them in different places.

The subject of the test is RS4; 11 with G101V mutation. The test can be described thus: In vitro anti-proliferation assay (ATPlite luminescence) in BCL-2-dependent ALL cell line RS4;11 with G101V mutation. The class given is cell-based. To be noted: read-out: RS411-G101V IC50. An outline of the steps: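 IC50 came from luminescent ATP quantification (ATPlite) following cell lysis. Compound dose ranges were applied for roughly 72 h to about 1×10^4 G101V-mutant RS4;11 cells per well, in 10% FBS medium.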

Where [1] appears, read: cellular anti-proliferative IC50, about 72 hours, medium with 10% FBS, ATPlite.

On to `Cc1cc2c(CN3CCN(C4CC5(CCN(c6ccc(C(=O)NS(=O)(=O)c7ccc(NCC8CCC(C)(O)CC8)c([N+](=O)[O-])c7)c(N7c8cc9cc[nH]c9nc8O[C@H]8COCC[C@@H]87)c6)CC5)C4)[C@H](c4ccccc4C)C3)cnc(N3CCOCC3)c2o1` (stereo partly drawn) [Example 146, 2-[(3R,8S)-2,5-dioxa-9,15,17-triazatetracyclo[8.7.0.0^{3,8}.0^{12,16}]heptadeca-1(10),11,13,16-tetraen-9-yl]-4-{2-[(2R)-4-{[2-methyl-7-(morpholin-4-yl)furo[2,3-c]pyridin-4-yl]methyl}-2-(2-methylphenyl)piperazin-1-yl]-7-azaspiro[3.5]nonan-7-yl}-N-[3-nitro-4-({[(1r,4r)-4-hydroxy-4-methylcyclohexyl]methyl}amino)benzenesulfonyl]benzamide], for which, under setting [1], the IC50 was 8.2 nM. For `CC(C)Oc1ccccc1[C@@H]1CN(Cc2ccc(F)c(F)c2)CCN1C1CC2(CCN(c3nc(N4c5cc6cc[nH]c6nc5O[C@H]5COCC[C@@H]54)c(C(=O)NS(=O)(=O)c4cc5c(c([N+](=O)[O-])c4)N[C@H](C4CCOCC4)CO5)cc3F)CC2)C1` [Example 234, 6-{2-[(2R)-4-[(3,4-difluorophenyl)methyl]-2-(2-isopropoxyphenyl)piperazin-1-yl]-7-azaspiro[3.5]nonan-7-yl}-2-[(3R,8S)-2,5-dioxa-9,15,17-triazatetracyclo[8.7.0.0^{3,8}.0^{12,16}]heptadeca-1(10),11,13,16-tetraen-9-yl]-5-fluoro-N-[(3R)-5-nitro-3-(oxan-4-yl)-3,4-dihydro-2H-1,4-benzoxazin-7-ylsulfonyl]pyridine-3-carboxamide], the IC50 under setting [1] came to 181 nM. In the case of `Cc1ccccc1[C@@H]1CN([C@@H]2CCOc3c(F)cc(F)cc32)CCN1C1CC2(CCN(c3ccc(C(=O)NS(=O)(=O)c4cc5c(c([N+](=O)[O-])c4)N[C@H](C4CCOCC4)CO5)c(N4c5cc6cc[nH]c6nc5O[C@H]5COCC[C@@H]54)c3)CC2)C1` [Example 198, 4-(2-((R)-4-((R)-6,8-difluorochroman-4-yl)-2-(o-tolyl)piperazin-1-yl)-7-azaspiro[3.5]nonan-7-yl)-N-(((R)-5-nitro-3-(tetrahydro-2H-pyran-4-yl)-3,4-dihydro-2H-benzo[b][1,4]oxazin-7-yl)sulfonyl)-2-((5aS,9aR)-6,7,9,9a-tetrahydro-1H-pyrano[3,4-b]pyrrolo[3′,2′:5,6]pyrido[3,2-e][1,4]oxazin-5(5aH)-yl)benzamide], the IC50 (Homo sapiens, RS4-11, 72 h) was 145 nM. The same measure, in the same setting: for `COc1cc(CN2CCN(C3CC4(CCN(c5ccc(C(=O)NS(=O)(=O)c6ccc(NCC7CCOCC7)c([N+](=O)[O-])c6)c(N6c7cc8cc[nH]c8nc7O[C@H]7COCC[C@@H]76)c5)CC4)C3)[C@@H](c3ccccc3OC(C)C)C2)cnc1N1CCOCC1` [Example 144, 4-(2-((S)-2-(2-isopropoxyphenyl)-4-((5-methoxy-6-morpholinopyridin-3-yl)methyl)piperazin-1-yl)-7-azaspiro[3.5]nonan-7-yl)-N-((3-nitro-4-(((tetrahydro-2H-pyran-4-yl)methyl)amino)phenyl)sulfonyl)-2-((5aS,9aR)-6,7,9,9a-tetrahydro-1H-pyrano[3,4-b]pyrrolo[3′,2′:5,6]pyrido[3,2-e][1,4]oxazin-5(5aH)-yl)benzamide] the value was 7.3 nM. Take `COc1ncc(CN2CCN(C3CC4(CCN(c5ccc(C(=O)NS(=O)(=O)c6ccc(NCC7CCC(C)(O)CC7)c([N+](=O)[O-])c6)c(N6c7cc8cc[nH]c8nc7O[C@H]7COCC[C@@H]76)c5)CC4)C3)[C@@H](c3ccccc3OC(C)C)C2)cc1C` (stereo partly drawn) [Example 158, N-((4-((((1r,4r)-4-hydroxy-4-methylcyclohexyl)methyl)amino)-3-nitrophenyl)sulfonyl)-4-(2-((S)-2-(2-isopropoxyphenyl)-4-((6-methoxy-5-methylpyridin-3-yl)methyl)piperazin-1-yl)-7-azaspiro[3.5]nonan-7-yl)-2-((5aS,9aR)-6,7,9,9a-tetrahydro-1H-pyrano[3,4-b]pyrrolo[3′,2′:5,6]pyrido[3,2-e][1,4]oxazin-5(5aH)-yl)benzamide]: the IC50 under setting [1] was found to be 21.2 nM. For the molecule `CC(C)Oc1ccccc1[C@H]1CN(Cc2ccc(N3CCOC[C@H]3C)cc2)CCN1C1CC2(CCN(c3ccc(C(=O)NS(=O)(=O)c4ccc(NCC5CCC(C)(O)CC5)c([N+](=O)[O-])c4)c(N4c5cc6cc[nH]c6nc5O[C@H]5COCC[C@@H]54)c3)CC2)C1` (stereo partly drawn) [Example 116, 2-[(3R,8S)-2,5-dioxa-9,15,17-triazatetracyclo[8.7.0.0^{3,8}.0^{12,16}]heptadeca-1(10),11,13,16-tetraen-9-yl]-4-{2-[(2S)-2-(2-isopropoxyphenyl)-4-({4-[(3R)-3-methylmorpholin-4-yl]phenyl}methyl)piperazin-1-yl]-7-azaspiro[3.5]nonan-7-yl}-N-[3-nitro-4-({[(1r,4r)-4-hydroxy-4-methylcyclohexyl]methyl}amino)benzenesulfonyl]benzamide], the IC50 under setting [1] came out at 28.7 nM. Regarding `Cc1ccccc1[C@@H]1CN(CC2CCOCC2)CCN1C1CC2(CCN(c3ccc(C(=O)NS(=O)(=O)c4ccc(NC[C@H]5CC[C@](C)(O)CC5)c([N+](=O)[O-])c4)c(N4c5cc6cc[nH]c6nc5O[C@H]5COCC[C@@H]54)c3)CC2)C1` [Example 156, 2-[(3R,8S)-2,5-dioxa-9,15,17-triazatetracyclo[8.7.0.0^{3,8}.0^{12,16}]heptadeca-1(10),11,13,16-tetraen-9-yl]-4-{2-[(2R)-2-(2-methylphenyl)-4-(oxan-4-ylmethyl)piperazin-1-yl]-7-azaspiro[3.5]nonan-7-yl}-N-[3-nitro-4-({[(1r,4r)-4-hydroxy-4-methylcyclohexyl]methyl}amino)benzenesulfonyl]benzamide], under setting [1], the IC50 turned out to be 12.2 nM. Same read-out and setting: for `COc1cc(CN2CCN(C3CC4(CCN(c5ccc(C(=O)NS(=O)(=O)c6ccc(NCC7CCC(C)(O)CC7)c([N+](=O)[O-])c6)c(N6c7cc8cc[nH]c8nc7O[C@H]7COCC[C@@H]76)c5)CC4)C3)[C@@H](c3ccccc3OC(C)C)C2)cnc1C1CC1` (stereo partly drawn) [Example 134, 4-{2-[(2S)-4-[(6-cyclopropyl-5-methoxypyridin-3-yl)methyl]-2-(2-isopropoxyphenyl)piperazin-1-yl]-7-azaspiro[3.5]nonan-7-yl}-2-[(3R,8S)-2,5-dioxa-9,15,17-triazatetracyclo[8.7.0.0^{3,8}.0^{12,16}]heptadeca-1(10),11,13,16-tetraen-9-yl]-N-[3-nitro-4-({[(1r,4r)-4-hydroxy-4-methylcyclohexyl]methyl}amino)benzenesulfonyl]benzamide] the value was 18.8 nM; for `COc1cc(CN2CCN(C3CC4(CCN(c5ccc(C(=O)NS(=O)(=O)c6cc7c(c([N+](=O)[O-])c6)N[C@H](C6CCOCC6)CO7)c(N6c7cc8cc[nH]c8nc7O[C@H]7COCC[C@@H]76)c5)CC4)C3)[C@H](c3ccccc3C(C)C)C2)cnc1OC` [Example 173, 4-{2-[(2R)-4-[(5,6-dimethoxypyridin-3-yl)methyl]-2-(2-isopropylphenyl)piperazin-1-yl]-7-azaspiro[3.5]nonan-7-yl}-2-[(3R,8S)-2,5-dioxa-9,15,17-triazatetracyclo[8.7.0.0^{3,8}.0^{12,16}]heptadeca-1(10),11,13,16-tetraen-9-yl]-N-[(3R)-5-nitro-3-(oxan-4-yl)-3,4-dihydro-2H-1,4-benzoxazin-7-ylsulfonyl]benzamide], 1 nM; for `COc1cc(CN2CCN([C@@H]3CC4(CCN(c5ccc(C(=O)NS(=O)(=O)c6ccc(NCC7CCC(C)(O)CC7)c([N+](=O)[O-])c6)c(N6c7cc8cc[nH]c8nc7O[C@H]7COCC[C@@H]76)c5)CC4)[C@@H]3C)[C@H](c3ccccc3C)C2)cnc1N1CCOCC1` (stereo partly drawn) [Example 140, 2-[(3R,8S)-2,5-dioxa-9,15,17-triazatetracyclo[8.7.0.0^{3,8}.0^{12,16}]heptadeca-1(10),11,13,16-tetraen-9-yl]-4-[(1S,2R)-2-[(2R)-4-{[5-methoxy-6-(morpholin-4-yl)pyridin-3-yl]methyl}-2-(2-methylphenyl)piperazin-1-yl]-1-methyl-7-azaspiro[3.5]nonan-7-yl]-N-[3-nitro-4-({[(1r,4r)-4-hydroxy-4-methylcyclohexyl]methyl}amino)benzenesulfonyl]benzamide], 6.4 nM.

In the case of `COc1ncc(CN2CCN(C3CC4(CCN(c5ccc(C(=O)NS(=O)(=O)c6ccc(NCC7CCC(C)(O)CC7)c([N+](=O)[O-])c6)c(N6c7cc8cc[nH]c8nc7O[C@H]7COCC[C@@H]76)c5)CC4)C3)[C@@H](c3ccccc3OC(C)C)C2)cc1N1CCOCC1` (stereo partly drawn) [Example 163, N-((4-((((1r,4r)-4-hydroxy-4-methylcyclohexyl)methyl)amino)-3-nitrophenyl)sulfonyl)-4-(2-((S)-2-(2-isopropoxyphenyl)-4-((6-methoxy-5-morpholinopyridin-3-yl)methyl)piperazin-1-yl)-7-azaspiro[3.5]nonan-7-yl)-2-((5aS,9aR)-6,7,9,9a-tetrahydro-1H-pyrano[3,4-b]pyrrolo[3′,2′:5,6]pyrido[3,2-e][1,4]oxazin-5(5aH)-yl)benzamide], the IC50 under setting [1] was 27.9 nM. The same measure, in the same setting: for `COc1cc(CN2CCN(C3CC4(CCN(c5ccc(C(=O)NS(=O)(=O)c6ccc(NC[C@H]7CC[C@](C)(O)CC7)c([N+](=O)[O-])c6)c(N6c7cc8cc[nH]c8nc7O[C@H]7COCC[C@@H]76)c5)CC4)C3)[C@H](c3ccccc3C)C2)cnc1N1CCOC[C@@H]1C` [Example 138, N-((4-((((1r,4r)-4-hydroxy-4-methylcyclohexyl)methyl)amino)-3-nitrophenyl)sulfonyl)-4-(2-((R)-4-((5-methoxy-6-((S)-3-methylmorpholino)pyridin-3-yl)methyl)-2-(o-tolyl)piperazin-1-yl)-7-azaspiro[3.5]nonan-7-yl)-2-((5aS,9aR)-6,7,9,9a-tetrahydro-1H-pyrano[3,4-b]pyrrolo[3′,2′:5,6]pyrido[3,2-e][1,4]oxazin-5(5aH)-yl)benzamide] the value was 1.7 nM.
